# Measured values published in PMC3842960, “Natural Stilbenoids Isolated from Grapevine Exhibiting Inhibitory Effects against HIV-1 Integrase and Eukaryote MOS1 Transposase In Vitro Activities” (PLoS ONE, 2013).
# Experiments:
# HIV-1 IN [1] = target: T1, HIV-1 IN (Human immunodeficiency virus type 1 group M subtype B, UniProt P04585); assay: HIV-1 IN in vitro concerted integration assay (processed or unprocessed donor DNA); conditions: for effect on integration from the processed DNA: processed donor DNA (strand transfer); for inhibition of integration from the unprocessed substrate: unprocessed donor DNA; for differential effect between reactions: strand transfer / processed donor versus 3′processing / unprocessed donor: comparison of concerted integration and 3′processing results
# HIV-1 IN [2] = target: T1, HIV-1 IN; assay: HIV-1 IN 3′processing assay; type: biochemical; conditions: 600 nM IN; increasing concentrations
# 293T cells = conditions: 72 hours treatment, 1–50 µM, MTS
# MOS1 = target: T2, MOS1 (Drosophila mauritiana, UniProt Q7JQ07); assay: MOS1 in vitro activities, overall statements of the discussion; type: biochemical, D. mauritiana; conditions: in vitro assays of MOS1 activities; discussion
# T2 construct: involving the full-length Mos1 transposase (MOS1) was recently solved; made in house
# T2 sequence (Q7JQ07 whole entry): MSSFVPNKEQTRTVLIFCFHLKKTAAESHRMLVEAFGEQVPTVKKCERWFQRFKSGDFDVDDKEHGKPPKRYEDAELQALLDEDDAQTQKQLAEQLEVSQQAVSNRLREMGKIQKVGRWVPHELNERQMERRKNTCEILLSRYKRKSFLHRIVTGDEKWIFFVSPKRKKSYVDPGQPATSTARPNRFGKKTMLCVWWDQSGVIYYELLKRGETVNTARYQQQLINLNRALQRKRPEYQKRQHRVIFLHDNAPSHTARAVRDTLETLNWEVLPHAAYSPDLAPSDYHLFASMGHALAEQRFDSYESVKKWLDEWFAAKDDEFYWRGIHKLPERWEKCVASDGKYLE
# Protocol: (§1) In vitro transposition reactions were performed using pBC-3T3 as both the donor DNA and the target, as previously described. Briefly, the basic transposition reaction mixtures contained 10 mM Tris-HCl (pH 9), 50 mM NaCl, 20 mM MgCl2, 0.5 mM EDTA, 5% glycerol, 5 ng/ml BSA, 600 ng pBC-3T3, and 80 nM purified MBP-MOS1 (added last) in a volume of 20 µl. Inhibitors (25 or 10 µM, as specified) or DMSO (2%) were added to the reaction mixtures before the transposase. The reactions were allowed to proceed for 30 min at 30°C. After phenol-chloroform extraction and ethanol precipitation, 10% of the reaction mixture was transformed in electro-competent JM109 E. coli (2 mm cuvette, 1.5 kV in a MicroPulser™BioRad). Appropriate dilutions of each reaction mixture were plated on LB-tetracycline (12.5 µg/ml) agar and LB-chloramphenicol (80 µg/ml) agar to score the transposition rate. The transposition rate was the number of Tet^R colonies divided by the number of Chloram^R plus Tet^R colonies. Each condition was done at least three times in independent experiments.
# Basic excision reaction mixtures contained 10 mM Tris-HCl (pH 9), 50 mM NaCl, 20 mM MgCl2, 0.5 mM EDTA, 0.5 mM DTT, 100 ng BSA, 600 ng of super-coiled pBC-3T3, and 80 nM MBP-MOS1 (added last) in a volume of 20 µl. Molecules (25 or 10 µM, as specified) or DMSO (2%) were added to the reaction mixtures before the transposase. The reactions were allowed to proceed at 30°C for 30 min before 2 µl of stop solution (loading buffer) were added. The reaction mixtures were then incubated at 65°C for 10 min. Each reaction was analysed by overnight electrophoresis at 2.7 V/cm on a TAE-buffered 1% agarose gel with ethidium bromide (0.3 mg/ml). After electrophoresis, the gel was photographed on a transilluminator. ImageGauge 4.22 software (Fujifilm) was used to quantify the bands. Each condition was tested at least twice.
# These assays were performed using pre-cleaved 3′ITRs (PC-ITR), i.e. ITRs in the configuration expected after excision. Double-strand ITRs were obtained by annealing equimolar amounts of 70-NTS-PN (5′[…]3′) and 70-TS-PC (5′[…]3′) single-strand oligonucleotides. Prior to annealing, the transferred strand (70-TS-PC) was 5′-end labelled using T4 polynucleotide kinase (Promega) and γ-^32P-ATP following the manufacturer's instructions. Oligonucleotides were provided by Eurofins MWG Biotech (Germany) or Eurogentec (Belgium). Reaction mixtures containing 10 mM Tris-HCl (pH 9), 50 mM NaCl, 1 mM DTT, 5% glycerol, 100 ng BSA, 100 nM of labelled PC-ITR and 100 nM MBP-MOS1 in a final volume of 20 µl were incubated at 30°C for 30 min. The pBC plasmid (which contained the cat gene, a hot-spot for Mos1 insertion) was then added to 30 ng/µL along with 5 mM MgCl2. Molecules (25 or 10 µM, as specified) or DMSO (2%) were added to the reaction mixtures along with the target DNA to estimate their effect on integration. Reactions were carried out for 3 hours at 30°C. 0.1 mg/ml proteinase K and 0.1% SDS were added to stop the reaction. DNA products were purified by phenol-chloroform extraction and ethanol precipitated using standard techniques. DNA products were resuspended in DNA loading buffer, then separated onto a 1% agarose gel in 1X TAE (Tris Acetate EDTA) buffer. The gel was dried onto a nitrocellulose membrane (Hybond N+, GE Healthcare), scanned using a Storm, and analysed with ImageQuant software. Signals were quantified using ImageQuant software. Efficiency of integration was calculated as the intensity of the integration signal divided by the intensity of free target signal plus integration signal. Each condition was tested at least twice.
# All molecules were also tested in in vitro assays reproducing integration and excision reactions catalysed by MOS1. […] In contrast, E-resveratrol and E-ε-viniferin glucoside, which act more specifically on HIV-1 3′processing reaction, and E-piceid and E-pterostilbene, which is more efficient on the integration reaction, were not active on MOS1.
# Mos1 transposase (MOS1) = target: T3, Mos1 transposase (MOS1) (Drosophila mauritiana, UniProt Q7JQ07); assay: MOS1 in vitro transposition assay (genetic hop experiment); type: biochemical, D. mauritiana; conditions: for inhibition at 25 µM: DMSO control as reference, read-out: inhibition of the whole MOS1 transposition activity
# T3 construct: involving the full-length Mos1 transposase (MOS1) was recently solved; made in house
# T3 sequence (Q7JQ07 whole entry): as above
# Protocol: The wild type Mos1 transposase (MOS1: 345 amino acids) was produced and purified as a fusion protein linked to the maltose-binding protein by using the pMal-c2 system (New England Biolabs) and following the manufacturer's instructions.
# as §1
# To identify the natural stilbenes active on MOS1, the 17 molecules were tested using an in vitro genetic “hop” experiment, which is the most sensitive test available as yet. Purified MOS1 was incubated with the pBC-3T3 plasmid, which was used both as the transposon donor and the target plasmid. This plasmid contains the pBR322 tetracycline resistance gene (without promoter) framed by two Mos1 ITRs. This reconstitutes a pseudo-Mos1 element named 3T3. We took advantage of the fact that the cat gene (present in the pBC backbone) is a hotspot for Mos1 integration. […] Transposition events were recovered by bacterial transformation with selection for tetracycline resistance, as a gain-of-function landmark for transposition. […] Controls correspond to assays performed without molecule but with DMSO, which is routinely used as the solvent. […] To confirm the efficiency of the six molecules, they were similarly assayed at 10 µM ( figure 6B ). Since they appeared to be still active at 10 µM, they were further characterized in order to identify the targeted step of the transposition cycle.
# [3] = read-out: inhibition of concerted integration
Structure (SMILES),inhibition at 10 µM (HIV-1 IN [1]; [3]) [%],inhibitory effect on 3′processing (HIV-1 IN [2]),activity on MOS1 (MOS1),differential effect between reactions: strand transfer / processed donor versus 3′processing / unprocessed donor (HIV-1 IN [1]),inhibition of concerted integration from processed and unprocessed donor (HIV-1 IN [1]; increasing concentrations),also measured
Oc1ccc(/C=C/c2cc(O)cc3c2[C@H](c2cc(O)cc(O)c2)[C@@H](c2ccc(O)cc2)O3)cc1 [(+)-E-ε-viniferin],< 5,,,,,
Oc1ccc(/C=C/c2cc(O)cc3c2[C@@H](c2cc(O)cc4c2[C@H](c2cc(O)cc(O)c2)[C@@H](c2ccc(O)cc2)O4)[C@H](c2ccc(O)cc2)O3)cc1 [E-miyabenol C],< 5,,,,,
Oc1cc(O)cc(/C=C/c2ccc(O)c(O)c2)c1 [E-piceatannol],,showed an inhibitory effect,,,,"cytotoxicity, cell survival (293T cells): showed some toxicity; effect on integration from the processed DNA (HIV-1 IN [1]; increasing concentrations): without having any detectable effect; inhibition of integration from the unprocessed substrate (HIV-1 IN [1]; increasing concentrations): inhibit integration from the unprocessed substrate"
OCC1OC(Oc2cc(O)cc(C=Cc3ccc(O)cc3)c2)C(O)C(O)C1O (stereo not drawn) [E-piceid],,,not active,more active on strand transfer reaction than,inhibited both activities,
Oc1ccc(/C=C/c2cc(O)cc(O)c2)cc1 [E-resveratrol],,showed an inhibitory effect,not active,reaction than on integration,,effect on integration from the processed DNA (HIV-1 IN [1]; increasing concentrations): without having any detectable effect; inhibition of integration from the unprocessed substrate (HIV-1 IN [1]; increasing concentrations): inhibit integration from the unprocessed substrate
Oc1ccc(/C=C/c2cc(O)cc3c2[C@H](c2cc(O)cc(O)c2)[C@@H](c2ccc(O)c(O)c2)O3)cc1 [E-scirpusin A],,low,,,inhibited both activities,
OCC1OC(Oc2cc(C=Cc3ccc(O)cc3)c3c(c2)OC(c2ccc(O)cc2)C3c2cc(O)cc(O)c2)C(O)C(O)C1O (stereo not drawn) [E-ε-viniferin glucoside],,showed an inhibitory effect,not active,reaction than on integration,,"cytotoxicity, cell survival (293T cells): showed some toxicity; effect on integration from the processed DNA (HIV-1 IN [1]; increasing concentrations): without having any detectable effect; inhibition of integration from the unprocessed substrate (HIV-1 IN [1]; increasing concentrations): inhibit integration from the unprocessed substrate"
Oc1ccc([C@@H]2c3c(O)cc(O)cc3[C@H]3c4c(cc(O)cc4[C@H]2O)O[C@@H]3c2ccc(O)cc2)cc1 [ampelopsin A],< 5,,,,,
Oc1ccc([C@H]2c3c(O)cc(O)cc3[C@H]3c4c(cc(O)cc4C2C2c4cc(O)cc5c4[C@H](c4cc(O)cc(O)c4[C@@H]2c2ccc(O)cc2)[C@@H](c2ccc(O)cc2)O5)O[C@@H]3c2ccc(O)cc2)cc1 (stereo partly drawn) [isohopeaphenol],< 5,,not active,,,
Oc1ccc(C(O)C2c3cc(O)cc(O)c3[C@H](c3ccc(O)cc3)[C@H]2c2cc(O)cc(O)c2)cc1 (stereo partly drawn) [leachianol G],,low,also active against MOS1 activities,more active on strand transfer reaction than,inhibited both activities,"activity against MOS1 in transposition assay (Mos1 transposase (MOS1); 10 µM): still active; inhibition at 25 µM (Mos1 transposase (MOS1); 25 µM): > 50%; inhibitory efficiency compared with raltegravir (HIV-1 IN [1]; concerted integration, increasing concentrations): inhibitory efficiencies close to raltegravir; inhibition at 50 µM (HIV-1 IN [1]; [3]): 30 to 60%"
Oc1cc(O)cc(-c2cc3ccc(O)cc3o2)c1 [moracin M],< 5,,,,,
Oc1ccc(/C=C2/c3cc(O)cc(O)c3[C@H](c3ccc(O)cc3)[C@H]2c2cc(O)cc(O)c2)cc1 [quadrangularin A],,showed an inhibitory effect,also active against MOS1 activities,better inhibitor of integration from unprocessed than from processed DNA,inhibited both activities,activity against MOS1 in transposition assay (Mos1 transposase (MOS1); 10 µM): still active; inhibition at 25 µM (Mos1 transposase (MOS1); 25 µM): > 50%
"Cc1nnc(C(=O)NC(C)(C)c2nc(C(=O)NCc3ccc(F)cc3)c(O)c(=O)n2C)o1 [raltegravir, reference compound]",,inhibition property than the selected compounds,,,always found better inhibitor than the selected compounds,
"Oc1ccc([C@H]2Oc3cc(O)cc(/C=C/c4ccc5c(c4)[C@@H](c4cc(O)cc6c4[C@H](c4cc(O)cc(O)c4)[C@@H](c4ccc(O)cc4)O6)[C@H](c4ccc(O)cc4)O5)c3[C@@H]2c2cc(O)cc(O)c2)cc1 [vitisin B, E-vitisin B]",< 5,,,,,activity against MOS1 in transposition assay (Mos1 transposase (MOS1); 10 µM): still active; activity against MOS1 in transposition assay (Mos1 transposase (MOS1); 25 µM): active against MOS1
